Where “and” joins values, the source holds several entries; their conditions need not be identical. Identical values can stand only once. Like-named read-outs stand apart in the source and are kept apart here.
Experiments:
AChE = conditions: cited from earlier work; for i2 for thioflavin T with A-site ligand: ternary complex with thioflavin T
carbamoylated AChE (EC) = carbamoylated AChE (EC) (Homo sapiens, UniProt P22303); assay: Carbachol binding to carbamoylated AChE
recombinant human AChE = recombinant human AChE (Homo sapiens, UniProt P22303); assay type: biochemical; conditions: for k12 + k21: 15.6 μM thioflavin T; for k122: two-component fit, minor component E2
[1] = molecular target: free AChE (E), recombinant human AChE (Homo sapiens, UniProt P22303); conditions: cited from earlier work
[2] = maximum parameter range fit, iEC fixed at 1e-6
[3] = maximum parameter range fit, iECKECS fixed at 8 mM
[4] = maximum parameter range fit, i fixed at 1e-6
[5] = maximum parameter range fit, iKs fixed at 12 mM

Chain of free AChE (E), recombinant human AChE (P22303 32-614): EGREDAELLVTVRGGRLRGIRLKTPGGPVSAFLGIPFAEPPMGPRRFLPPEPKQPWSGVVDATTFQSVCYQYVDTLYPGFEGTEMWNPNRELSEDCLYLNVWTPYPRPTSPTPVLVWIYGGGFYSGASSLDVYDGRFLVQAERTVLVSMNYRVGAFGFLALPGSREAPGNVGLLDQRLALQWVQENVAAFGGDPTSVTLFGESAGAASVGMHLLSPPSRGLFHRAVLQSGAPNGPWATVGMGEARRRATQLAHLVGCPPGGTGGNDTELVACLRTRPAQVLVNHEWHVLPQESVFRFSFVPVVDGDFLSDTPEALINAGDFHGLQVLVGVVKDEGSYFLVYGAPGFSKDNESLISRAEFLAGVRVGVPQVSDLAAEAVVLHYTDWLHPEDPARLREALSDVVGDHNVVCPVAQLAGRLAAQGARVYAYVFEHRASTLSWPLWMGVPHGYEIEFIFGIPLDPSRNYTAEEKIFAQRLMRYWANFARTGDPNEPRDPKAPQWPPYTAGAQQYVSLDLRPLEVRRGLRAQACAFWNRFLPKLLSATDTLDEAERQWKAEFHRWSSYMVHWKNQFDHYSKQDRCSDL
Chain of recombinant human AChE (P22303 32-614): as above
Chain of carbamoylated AChE (EC) (P22303 32-574 limits assumed): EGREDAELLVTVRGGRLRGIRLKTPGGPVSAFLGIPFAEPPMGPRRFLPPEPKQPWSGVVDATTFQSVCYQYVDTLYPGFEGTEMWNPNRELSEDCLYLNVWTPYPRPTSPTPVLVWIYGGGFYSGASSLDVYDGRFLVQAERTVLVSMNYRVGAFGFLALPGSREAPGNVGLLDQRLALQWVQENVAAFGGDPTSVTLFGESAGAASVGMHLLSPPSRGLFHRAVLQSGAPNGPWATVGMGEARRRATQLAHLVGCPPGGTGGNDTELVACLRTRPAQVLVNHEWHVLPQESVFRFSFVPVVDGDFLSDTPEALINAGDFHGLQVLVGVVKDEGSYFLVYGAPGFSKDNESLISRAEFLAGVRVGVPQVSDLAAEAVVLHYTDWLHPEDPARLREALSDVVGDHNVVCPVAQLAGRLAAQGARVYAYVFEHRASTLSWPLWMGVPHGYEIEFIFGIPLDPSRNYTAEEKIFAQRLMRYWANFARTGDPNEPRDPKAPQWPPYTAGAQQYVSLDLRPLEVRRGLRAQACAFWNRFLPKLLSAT

For `CC(=O)Nc1cccc([N+](C)(C)C)c1` [ATMA, 3-(acetamido)-N,N,N-trimethylanilinium], the “i2 for propidium with A-site ligand” value (AChE; ternary complex with propidium) is listed as 9.5 and the “i2 for thioflavin T with A-site ligand” value (AChE) is listed as 3.1.

`C[N+](C)(C)CCOC(N)=O` [carbachol, carbamoylcholine chloride] showed an iEC (carbamoylated AChE (EC)) of 1.23, a Kd (carbamoylated AChE (EC); KECM+S, combined binding to A- and P-sites in EC, iEC2 fixed at 0.90) of 1700 ± 400 µM and a Kd (carbamoylated AChE (EC); KECM+S, maximum parameter range fit, iEC fixed at 1e-6) of 1660 µM. For the same molecule, the Kd (carbamoylated AChE (EC); KECM+S, maximum parameter range fit, iECKECS fixed at 8 mM) was 1660 µM, the Kd (carbamoylated AChE (EC); KECM, A-site in EC, iEC2 fixed at 0.90) was 1800 ± 500 µM and the Kd (carbamoylated AChE (EC); KECM, maximum parameter range fit, iEC fixed at 1e-6) was 1660 µM. The fECSL/fESL (carbamoylated AChE (EC); for the three sets in Tables 1 and 2) was 1.14 ± 0.03, the “increase of fluorescence of bound thioflavin T when carbachol bound to the A-site in ternary complex with EC” value (carbamoylated AChE (EC); from fECL/fECSL) was “about 20%” and the fECL/fECSL (carbamoylated AChE (EC); iEC2 fixed at 0.90) was 0.83 and 0.83 ± 0.01. For the same molecule, the Kd (carbamoylated AChE (EC); iECKECS, P-site in EC, iEC2 fixed at 0.90) was 32000 ± 2000 µM, the Kd (carbamoylated AChE (EC); iECKECS, maximum parameter range fit, iEC fixed at 1e-6) was 34000 µM and the fECL/fECSL (carbamoylated AChE (EC); [2]) was 0.83. It also gave an iEC2 (carbamoylated AChE (EC); [2]) of 0.96, a fECL/fECSL (carbamoylated AChE (EC); [3]) of 0.83 and an iEC (carbamoylated AChE (EC); [3]) of 3.5. For the same molecule, the iEC2 (carbamoylated AChE (EC); [3]) was 0.21, the “k12 + k21” value (recombinant human AChE; 1.67 mM carbachol, one-component fit (eq 6)) was 5.94 ± 0.02 min⁻¹ and the “k12 + k21” value (recombinant human AChE; 1.67 mM carbachol, two-component fit (eq A2)) was 6.53 ± 0.02 min⁻¹. The k122 (recombinant human AChE; 1.67 mM carbachol) was 0.68 ± 0.04, the “k12 + k21” value (recombinant human AChE; 60 mM carbachol, one-component fit (eq 6)) was 23.8 ± 0.3 min⁻¹ and the “k12 + k21” value (recombinant human AChE; 60 mM carbachol, two-component fit (eq A2)) was 27.0 ± 0.4 min⁻¹. The k122 (recombinant human AChE; 60 mM carbachol) was 4.3 ± 0.3, the i [1] was 0.92 and the fEL/fESL [1, 4] was 1.50. For the same molecule, the i2 [1, 4] was 1.08, the fEL/fESL [1, 5] was 1.50 and the i [1, 5] was 1.59. The i2 [1, 5] was 0.42, the fEL/fESL ([1]; one-site fit, (iKS)^−1 fixed at 0) was 1.85 and the Kd ([1]; read-out: iKs, P-site in E, i2 fixed at 0.90) was 26000 ± 4000 µM.

For `CC[N+](C)(C)c1cccc(O)c1` [edrophonium], the “i2 for thioflavin T with A-site ligand” value (AChE) is given as 1.12.
